Laboratory results published in US8183383B2, “Protein tyrosine phosphatase 1B inhibitor, preparation methods and uses thereof” (Shanghai Institute of Materia Medica, Chinese Academy of …, priority 2007, dated 2012).

Target: T1, hPTP1B (Homo sapiens, UniProt P18031)
T1 construct: The catalytic structural domain of hPTP1B was expressed in E-coli system by a molecular biology protocol; made in house; host or cells: E. coli
T1 sequence (P18031 3-277 limits assumed): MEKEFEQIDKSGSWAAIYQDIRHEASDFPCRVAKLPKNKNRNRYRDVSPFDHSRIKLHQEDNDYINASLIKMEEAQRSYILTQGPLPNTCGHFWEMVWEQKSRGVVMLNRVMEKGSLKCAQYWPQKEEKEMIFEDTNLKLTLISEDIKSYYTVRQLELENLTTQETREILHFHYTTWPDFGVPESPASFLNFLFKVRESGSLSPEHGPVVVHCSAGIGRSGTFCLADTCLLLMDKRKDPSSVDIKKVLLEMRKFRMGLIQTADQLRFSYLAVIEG
Experiment: PTP1B inhibition test (pNPP hydrolysis, absorption at 410 nm)
Assay type: biochemical
Details: recombinant hPTP1B catalytic domain 40 nM, 2 mM pNPP, pH 7.0, 2% DMSO; read-out: IC50(μM), inhibitory activity of the test compounds against PTP1B
Source text: 1) Test principle: The catalytic structural domain of hPTP1B was expressed in E-coli system by a molecular biology protocol. The purified hPTP1B recombinant protein can hydrolyze the phosphoester linkage of the pNPP substrate to obtain a product which has a strong light absorption at 410 nm. Therefore, the variation of the enzyme activity and the inhibitory activity of a compound against the enzyme can be observed by directly monitoring the changes in the light absorption at 410 nm. A typical activity assay system is as follows: 50 mM Mops, PH 7.0, 1 mM EDTA, 2 mM DTT, 2 mM PNPP, 2% DMSO, 40 nM hPTP1B.
2) Measuring Index: The light absorption was dynamically measured at 410 nm for 3 min. The slope of the first-order reaction of the dynamic curve thereof was considered as the activity index of the enzymes.
3) Measurement: • 1. 1 mg sample was dissolved in 200 μL DMSO. To each wall of the A2-H11 of a 96-wells polypropylene plate, 20 μL of the solution was added, followed by addition of 80 μL DMSO. The plate was used as mother plate. • 2. To each corresponding wall of a 96-wells polypropylene plate, 2 μL of sample was added with a Biomek 2000 automation workstation. The plate was used as daughter plate for screening. • 3. To each wall of A1-D1 and E12-H12, 2 μL, DMSO was added. These walls were regarded as 100% of enzyme activity for control. • 4. To each wall of A12-D12 and E1-H1, 2 μL positive control with different concentrations (four concentrations prepared by double-fold dilution from […]) was added respectively. • 5. To each wall of A1-H12, 88 μL Assay mix was added respectively. • 6. To each wall of A1-H12, 10 μL hPTP1B was added respectively. • 7. The light absorption was measured at 410 nm for 3 min on a SpectraMAX 340 spectrometer. • 8. Exporting the output into a TXT file, and opening the file with Excel. The average of the Vmax values of A1-D1 and E12-H12 was considered as 100% of enzyme activity.
4) Results: The screening results were the % inhibitory rate against the enzyme when the compound concentration was 20 μg/mL. 1050 value was calculated according to a conventional screening when the inhibitory rate exceeded 50%. The […] value of the positive control, 4-[4-(4-oxalyl-phenoxymethyl)-benzyloxy]-phenyl-oxo-acetic acid, is 5.4 μM [Christopher T. Seto, et al. J. Med. Chem., 2002, 45, 3946-3952].

SMILES	IC50
CCOC(=O)/C(C)=C\C(C)=C\c1csc([C@H](Cc2ccc(OCc3ccccc3)cc2)NC(=O)C(O)C2CCCCC2)n1 (stereo partly shown) [WY602-2]	13.5 µM
CCOC(=O)/C(C)=C\C(C)=C\c1csc([C@H](Cc2ccc(OCc3ccccc3)cc2)NC(=O)C2CCCCC2=O)n1 (stereo partly shown) [WY586d]	8.44 µM
C=CCOc1ccc(C[C@H](NC(=O)C2CCCCC2)c2nc(/C=C(C)/C=C(/C)C(=O)OCC)cs2)cc1 [WY522h]	34.4 µM
CCOC(=O)/C(C)=C\C(C)=C\c1csc([C@H](Cc2ccc(OCc3ccccc3)cc2)NC(=O)C(=O)C2CCCO2)n1 (stereo partly shown) [WY588]	10.4 µM
CCOC(=O)/C(C)=C\C(C)=C\c1csc([C@H](Cc2ccc(OCc3ccccc3)cc2)NC(=O)CC(C)(C)C)n1 [WY560t]	20.2 µM
CCCCC(=O)C(=O)N[C@@H](Cc1ccc(OCc2ccccc2)cc1)c1nc(/C=C(C)/C=C(/C)C(=O)OCC)cs1 [WY574]	8.58 µM
C=CCc1cc(C[C@H](NC(=O)C2CCCCC2)c2nc(/C=C(C)/C=C(/C)C(=O)OCC)cs2)ccc1O [WY522b]	> 40 µM
CCOC(=O)/C(C)=C\C(C)=C\c1csc([C@H](Cc2ccc(OCc3ccccc3)cc2)NC(=O)C2CCCC2)n1 [WY558s]	12.7 µM
CCOC(=O)/C(C)=C\C(C)=C\c1csc([C@H](Cc2ccc(OCc3ccccc3)cc2)NC(=O)C(OCc2ccccc2)C(C)C)n1 (stereo partly shown) [WY652s]	9.98 µM
CCOC(=O)/C(C)=C\C(C)=C\c1csc([C@H](Cc2ccc(O)c(Cc3ccccc3)c2)NC(=O)C2CCCCC2)n1 [WY572t]	4.47 µM
CCOC(=O)/C(C)=C\C(C)=C\c1csc([C@H](Cc2ccc(OCc3ccccc3)cc2)NC(=O)N[C@@H](Cc2ccc(OCc3ccccc3)cc2)c2nc(/C=C(C)/C=C(/C)C(=O)OCC)cs2)n1 [WY951]	6.29 µM
CCOC(=O)/C(C)=C\C(C)=C\c1csc([C@H](Cc2ccc(OCc3ccc(OC)cc3)cc2)NC(=O)C2CCCCC2)n1 [WY602h]	25.6 µM
CCOC(=O)/C(C)=C\C(C)=C\c1csc([C@H](Cc2ccc(OC)cc2)NC(=O)C2CCCCC2)n1 [WY496h]	30.1 µM
CCOC(=O)/C(C)=C\C(C)=C\c1csc([C@H](Cc2ccc(OCc3ccccc3)cc2)NC(=O)c2cc3ccccc3s2)n1 [WY622s]	25.6 µM
CCOC(=O)/C(C)=C\C(C)=C\c1csc([C@H](Cc2ccc(O)cc2)NC(=O)C2CCCCC2)n1 [WY482h]	27.8 µM
CCOC(=O)COc1ccc(C[C@H](NC(=O)C2CCCCC2)c2nc(/C=C(C)/C=C(/C)C(=O)OCC)cs2)cc1 [WY568h]	> 40 µM
COC(=O)/C(C)=C\C(C)=C\c1csc([C@H](Cc2ccc(OCc3ccccc3)cc2)NC(=O)C(O)c2ccccc2)n1 (stereo partly shown) [WY584]	> 35 µM
CCOC(=O)/C(C)=C\C(C)=C\c1csc([C@H](Cc2ccc(OCc3ccccc3)cc2)NC(=O)C(=O)CO)n1 [WY548]	> 35 µM
CCOC(=O)/C(C)=C\C(C)=C\c1csc([C@H](Cc2ccc(OCc3ccccc3)cc2)NC(=O)C2CCCO2)n1 (stereo partly shown) [WY560s]	> 40 µM
C/C(=C/C(C)=C/c1csc([C@H](Cc2ccc(OCc3ccccc3)cc2)NC(=O)C2CCCCC2)n1)C(=O)O [WY544a]	4.4 µM
CCOC(=O)/C(C)=C\C(C)=C\c1csc([C@H](Cc2ccc(OCc3cccc(F)c3)cc2)NC(=O)C2CCCCC2)n1 [WY590h3]	24.1 µM
CCOC(=O)/C(C)=C\C(C)=C\c1csc([C@H](Cc2ccc(OCc3ccccc3)cc2)NC(=O)C(=O)c2ccc(F)cc2)n1 [WY612]	5.13 µM
CCOC(=O)/C(C)=C\C(C)=C/c1csc([C@H](Cc2ccc(OCc3ccccc3)cc2)NC(=O)C2CCCCC2)n1 [WY572-4]	7.9 µM
CCOC(=O)/C(C)=C\C(C)=C\c1csc([C@H](Cc2ccc(OCc3ccccc3)cc2)NC(=O)c2ccccc2)n1 [WY566s]	15.2 µM
CCOC(=O)/C(C)=C\C(C)=C\c1csc([C@H](Cc2ccc(OCCO)cc2)NC(=O)C2CCCCC2)n1 [WY526h]	> 40 µM
CCOC(=O)/C(C)=C\C(C)=C\c1nc([C@H](Cc2ccc(OCc3ccccc3)cc2)NC(=O)C2CCCCC2)sc1-c1ccccc1 [WY648z]	3.3 µM

SMILES	IC50
CCOC(=O)/C(C)=C\C(C)=C\c1csc([C@H](Cc2ccc(OCc3ccccc3)cc2)NC(=O)C(=O)c2ccccc2)n1 [WY594]	6.92 µM
CCOC(=O)/C(C)=C\C(C)=C\c1csc([C@H](Cc2ccc(OCc3ccccc3)cc2)NC(=O)C(=O)COC)n1 [WY562]	10.2 µM
CCOC(=O)/C(C)=C\C(C)=C\c1csc([C@H](Cc2ccc(OC(C)C(=O)OCC)cc2)NC(=O)C2CCCCC2)n1 (stereo partly shown) [WY582h]	> 35 µM
CCOC(=O)/C(C)=C\C(C)=C\c1csc([C@H](Cc2ccc(OCc3ccccc3)cc2)NC(=O)C(=O)c2cccs2)n1 [WY600t]	10.9 µM
CCOC(=O)/C(C)=C\C(C)=C\c1csc([C@H](Cc2ccc(OCc3ccsc3)cc2)NC(=O)C2CCCCC2)n1 [WY578h]	12 µM
CCOC(=O)/C(C)=C\C(C)=C\c1nc([C@H](Cc2ccc(OCc3ccccc3)cc2)NC(=O)C2CCCCC2)sc1C [WY586z]	4.86 µM
CCOC(=O)/C(C)=C\C(C)=C\c1csc([C@H](Cc2ccc(OCc3ccccc3F)cc2)NC(=O)C2CCCCC2)n1 [WY592h2]	31.8 µM
CCOC(=O)/C(C)=C\C(C)=C\c1csc([C@H](Cc2ccc(OCc3ccccc3)cc2)NC(=O)c2ccco2)n1 [WY556s]	> 40 µM
CCOC(=O)/C(C)=C\C(C)=C\c1csc([C@H](Cc2ccc(OCc3ccc4ccccc4c3)cc2)NC(=O)C2CCCCC2)n1 [WY622h]	> 35 µM
CCOC(=O)/C(C)=C\C(C)=C\c1csc([C@H](Cc2ccc(-c3ccccc3)cc2)NC(=O)C2CCCCC2)n1 [WY542h]	> 40 µM
CCOC(=O)/C(C)=C\C(C)=C\c1csc([C@H](Cc2ccc(OCc3ccccc3)cc2)NC(=O)COCc2ccccc2)n1 [WY610s]	9.42 µM
CCOC(=O)/C(C)=C\C(C)=C\c1csc([C@H](Cc2ccc(OCc3ccccc3)cc2)NC(=O)COC(C)=O)n1 [WY562s]	> 40 µM
CCOC(=O)/C(C)=C\C(C)=C\c1csc([C@H](Cc2ccc(OCC(=O)O)cc2)NC(=O)C2CCCCC2)n1 [WY540a]	> 40 µM
CCOC(=O)/C(C)=C\C(C)=C\c1csc([C@H](Cc2ccc(OCc3ccccc3)cc2)NC(=O)C(F)(F)F)n1 [WY558f]	> 35 µM
CCOC(=O)/C(C)=C\C(C)=C\c1csc([C@H](Cc2ccc(OCc3ccc(F)cc3)cc2)NC(=O)C2CCCCC2)n1 [WY590h]	25.6 µM
CCOC(=O)/C(C)=C\C(C)=C\c1csc([C@H](Cc2ccc(OCc3ccccc3)cc2)NC(=O)c2ccc(F)cc2)n1 [WY584s]	> 35 µM
CCOC(=O)/C(C)=C\C(C)=C\c1csc([C@H](Cc2ccc(OCc3ccccc3)cc2)NC(=O)C2CCCCC2)n1 [WY572s]	6.29 µM
CCOC(=O)/C(C)=C\C(C)=C\c1csc([C@H](Cc2ccc(OCc3ccccc3)cc2)NC(=O)C(=O)C2CCC2)n1 [WY572]	8.52 µM
CCOC(=O)/C(C)=C\C(C)=C\c1csc([C@H](Cc2ccc(OCc3ccccc3)cc2)NC(=O)C(=O)c2ccc[nH]2)n1 [WY583]	> 35 µM
CCOC(=O)/C(C)=C\C(C)=C\c1csc([C@H](Cc2ccc(OCc3ccccc3)cc2)NC(=O)C(=O)C2CCCCC2)n1 [WY600]	3.44 µM
CCOC(=O)/C(C)=C\C(C)=C\c1csc([C@H](Cc2ccc(OCCc3ccccc3)cc2)NC(=O)C2CCCCC2)n1 [WY586h]	> 35 µM
CC(=C\c1csc([C@H](Cc2ccc(OCc3ccccc3)cc2)NC(=O)C2CCCCC2)n1)/C=C(\C)C(=O)O [WY544-2]	11.3 µM
CCOC(=O)/C(C)=C\C(C)=C\c1csc([C@H](Cc2ccc(OCc3ccccc3)cc2)NC(=O)Cc2ccccc2)n1 [WY580s]	23.1 µM
CCOC(=O)/C(C)=C\C(C)=C\c1csc([C@H](Cc2ccc(OCc3ccccc3)cc2)NC(=O)C2CC2)n1 [WY530s]	> 35 µM
CCOC(=O)/C(C)=C\C(C)=C\c1csc([C@H](Cc2ccc(OCc3ccccc3)cc2)NC(=O)C(=O)C2CCCC2)n1 [WY586]	11 µM
CCOC(=O)/C(C)=C\C(C)=C\c1csc([C@H](Cc2ccc(OCc3ccc(C#N)cc3)cc2)NC(=O)C2CCCCC2)n1 [WY597h]	> 35 µM
